Assay results from patent publication US11147772B2, “Timed, pulsatile release systems” (Adare Pharmaceuticals, Inc., priority 2005, dated 2021).
Counter-ions that a name gives are not always drawn.

What was measured:
[1] = pH of representative drugs suspended in water; type: physicochemical; conditions: for pH when suspended in purified water (range over the concentrations of Table 1): range over tested solid contents; for Acidity/Alkalinity: drug suspended in water
[2] = Drug release (dissolution) testing of TPR beads in two-stage medium, lag-time; type: physicochemical; conditions: expected from higher alkalinity, given coating conditions
Description: Dissolution testing of IR beads and enteric coated beads (for acid resistance testing) is conducted with a USP Apparatus 1 (baskets at 100 rpm) or Apparatus 2 (paddles at 50 rpm) in 900 mL of 0.1N HCl at 37° C. while the dissolution testing of TPR beads is conducted in a USP apparatus using a two-stage dissolution medium (first 2 hours in 700 mL of 0.1N HCl at 37° C. followed by dissolution testing at pH=6.8 obtained by the addition of 200 mL of pH modifier). Drug release with time is determined by HPLC on samples pulled at selected intervals.
Drug Release Testing: The drug release profiles were generated by dissolution testing per US Pharmacopoeia method (Apparatus 1 with baskets at 100 rpm or Apparatus 2 with paddles at 50 rpm) using 700 mL of p H 1.2 buffer for 2 hours followed by testing in 900 mL of pH 6.8 for the remaining time-points). The IR and enteric-coated beads were tested in 900 mL of 0.1N HCl for 1 and 1.5 hrs, respectively. The samples pulled at different time-points were quantified by HPLC.

[3] = drug concentration (solid content) 0.1 mg/mL in water
[4] = drug concentration (solid content) 1.0 mg/mL in water
[5] = drug concentration (solid content) 10 mg/mL in water
[6] = drug concentration (solid content) 0.2 mg/mL in water
[7] = drug concentration (solid content) 2.0 mg/mL in water
[8] = drug concentration (solid content) 20 mg/mL in water

Row | SMILES | pH of Solution/Suspension [1, 3] | pH of Solution/Suspension [1, 4] | pH of Solution/Suspension [1, 5] | pH when suspended in purified water (range over the concentrations of Table 1) [1] | lag time relative to nizatidine [2] | pH of Solution/Suspension [1, 6] | pH of Solution/Suspension [1, 7] | pH of Solution/Suspension [1, 8] | Acidity/Alkalinity [1]
1 | CC(C)NCC(O)COc1ccc(CC(N)=O)cc1 (stereo not shown) [Atenolol] | pH = 7.9 | pH = 10.9 | pH = 11.0 | 7.9-11.0 | shorter lag time than nizatidine |  |  |  | 
2 | CNC(=C[N+](=O)[O-])NCCSCc1csc(CN(C)C)n1 [Nizatidine] |  |  |  | 6.5-8.7 |  | pH = 6.5 | pH = 7.4 | pH = 8.7 | Alkaline (an API exhibiting a pH of 7.0, or greater, is designated as an alkaline drug)
3 | CN(C)CCC=C1c2ccccc2C=Cc2ccccc21 [Cyclobenzaprine Hydrochloride] | pH = 6.1 | pH = 6.5 | pH = 6.7 |  |  |  |  |  | Acidic (exhibiting a pH of 7.0, or less, when suspended in water at a solid content of 2 mg/mL is designated as an acidic drug)
4 | CC(C)NCC(O)COc1cccc2ccccc12 (stereo not shown) [Propranolol Hydrochloride] |  |  |  | 5.7-6.5 |  | pH = 5.7 | pH = 6.0 | pH = 6.5 | Acidic (exhibiting a pH of 7.0, or less, when suspended in water at a solid content of 2 mg/mL is designated as an acidic drug)
